Experimental data taken from patent publication US10428045B2, “Benzazepine compounds, conjugates, and uses thereof” (Silverback Therapeutics, Inc., priority 2017, dated 2019).

How the values were obtained:
[1] = tested on: Trop2− MiaPaca2; experiment: Antigen dependent human monocyte activation in mouse model, TROP2− tumor; type: in vivo; settings: NOD SCID mice with TROP2− tumor, 5-20 mg/kg intravenously, human monocytes injected intratumorally
Protocol: (§1) Human monocytes were prepared as described above. Trop2^+ MDA-MB-453 cells or Trop2^− MiaPaca2 were cultured by standard methods. A TLR8 benzazepine linker payload (LP) was prepared by attaching a MCC (N-maleimidomethyl]cyclohexane-1-carboxylate) linker in place of the mc-vc-PABA linker in Compound-Linker 2.1 to form Compound-Linker 2.22. TROP2-TLR8 benzazepine conjugates were prepared by conjugation of Compound-Linker 2.22 to a TROP2 antibody (sacituzumab) to form a conjugate with an average DAR of about 4.
(§2) On Day 1 NOD SCID mice were injected with 5×10^5 Trop2^+ MDA-MB-453 cells or Trop2-MiaPaca2 cells. Seven to ten days later when the tumor size reached about 300 mm^3, the mice were injected intraveneously with 5-20 mg/kg of the TROP2-TLR8 benzazepine conjugate or TROP2 antibody alone. Sixteen hours later, 10^6 human monocytes were injected intratumorally. Four to six hours later, the tumors were harvested and digested. Monocytes were identified by staining for cell surface markers and monocyte activation was determined by intracellular staining for IL-6.

[2] = tested on: Trop2+ MDA-MB-453 cells; experiment: Antigen dependent human monocyte activation in mouse model, TROP2+ tumor; type: in vivo; settings: NOD SCID mice with TROP2+ tumor, 5-20 mg/kg intravenously, human monocytes injected intratumorally
Protocol: as §1, §2

control antibody: "TROP2 antibody alone"; "a TROP2 antibody (sacituzumab)"
human monocyte activation (intracellular staining for IL-6) [1]: did not cause human monocyte activation
human monocyte activation (intracellular staining for IL-6) [2]: did not cause human monocyte activation
